Activity calls are given as the source filed them.
How the values were obtained:
[1] = target: T1, Oxysterols receptor LXR-beta (Homo sapiens, UniProt P55055); assay type: functional, cell-based;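 further: Cell-based luminescence dose-response assay of agonist activity at LXR, run as a confirmatory counterscreen to a daf-12 agonist screen; HEK293 cells with Gal4-LXR fusion and GAL4-driven luciferase reporter; agonist potency from rising luciferase signal of a Gal4-LXR reporter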
T1 sequence (P55055 whole entry): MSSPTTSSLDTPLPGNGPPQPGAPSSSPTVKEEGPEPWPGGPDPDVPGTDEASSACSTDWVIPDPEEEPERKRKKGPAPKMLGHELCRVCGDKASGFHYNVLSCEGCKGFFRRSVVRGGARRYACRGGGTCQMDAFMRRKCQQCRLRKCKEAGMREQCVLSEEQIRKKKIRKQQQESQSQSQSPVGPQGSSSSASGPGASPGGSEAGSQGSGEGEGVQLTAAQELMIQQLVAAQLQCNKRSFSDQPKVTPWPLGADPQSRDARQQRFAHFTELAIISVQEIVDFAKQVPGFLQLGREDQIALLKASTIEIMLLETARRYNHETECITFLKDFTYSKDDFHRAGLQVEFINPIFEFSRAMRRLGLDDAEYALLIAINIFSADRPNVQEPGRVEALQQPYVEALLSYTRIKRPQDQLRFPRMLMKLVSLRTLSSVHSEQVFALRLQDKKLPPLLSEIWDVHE

[2] = target: T2, Sentrin-specific protease 6 (Homo sapiens, UniProt Q9GZR1); assay: SAR Analysis of small molecule inhibitors of Sentrin-specific protease 6 (SENP6) using a Luminescent assay. [Related pubchem assays (depositor defined):AID2582, AID2599]; assay type: functional
T2 sequence (Q9GZR1 whole entry): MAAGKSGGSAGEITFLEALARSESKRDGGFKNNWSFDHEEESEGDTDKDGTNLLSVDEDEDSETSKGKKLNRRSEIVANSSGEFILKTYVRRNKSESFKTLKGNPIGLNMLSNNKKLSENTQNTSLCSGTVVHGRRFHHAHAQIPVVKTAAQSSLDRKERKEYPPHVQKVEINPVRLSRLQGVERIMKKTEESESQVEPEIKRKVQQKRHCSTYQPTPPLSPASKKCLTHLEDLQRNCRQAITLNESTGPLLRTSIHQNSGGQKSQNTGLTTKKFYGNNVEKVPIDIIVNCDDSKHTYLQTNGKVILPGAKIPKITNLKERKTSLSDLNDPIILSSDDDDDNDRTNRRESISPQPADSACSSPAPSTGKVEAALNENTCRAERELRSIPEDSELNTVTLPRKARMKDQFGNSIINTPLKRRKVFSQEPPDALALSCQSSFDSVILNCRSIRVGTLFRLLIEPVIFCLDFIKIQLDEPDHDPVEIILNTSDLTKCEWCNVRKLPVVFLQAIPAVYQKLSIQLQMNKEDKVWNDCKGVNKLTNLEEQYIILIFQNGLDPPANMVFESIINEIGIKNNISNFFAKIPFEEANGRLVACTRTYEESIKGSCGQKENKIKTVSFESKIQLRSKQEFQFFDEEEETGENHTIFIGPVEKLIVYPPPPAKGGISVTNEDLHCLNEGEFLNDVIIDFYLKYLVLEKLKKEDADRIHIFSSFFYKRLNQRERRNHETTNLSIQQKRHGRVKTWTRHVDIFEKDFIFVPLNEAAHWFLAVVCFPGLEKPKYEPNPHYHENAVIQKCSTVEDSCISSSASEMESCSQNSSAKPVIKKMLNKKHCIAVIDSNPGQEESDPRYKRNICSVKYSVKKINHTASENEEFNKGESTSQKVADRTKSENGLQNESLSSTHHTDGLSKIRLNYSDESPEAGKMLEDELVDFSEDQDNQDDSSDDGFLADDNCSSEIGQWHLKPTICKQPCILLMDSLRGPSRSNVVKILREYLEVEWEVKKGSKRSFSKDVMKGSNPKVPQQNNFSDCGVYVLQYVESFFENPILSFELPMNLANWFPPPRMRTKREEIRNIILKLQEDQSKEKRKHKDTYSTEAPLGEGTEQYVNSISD

Caspase-3 = target: T3, Caspase-3 (Homo sapiens, UniProt P42574); assay: SAR Analysis of small molecule inhibitors of Sentrin-specific proteases (SENPs) using a Caspase-3 Selectivity assay. [Related pubchem assays (depositor defined):AID2540, AID2599, AID434973, AID489001]; assay type: functional
T3 sequence (P42574 whole entry): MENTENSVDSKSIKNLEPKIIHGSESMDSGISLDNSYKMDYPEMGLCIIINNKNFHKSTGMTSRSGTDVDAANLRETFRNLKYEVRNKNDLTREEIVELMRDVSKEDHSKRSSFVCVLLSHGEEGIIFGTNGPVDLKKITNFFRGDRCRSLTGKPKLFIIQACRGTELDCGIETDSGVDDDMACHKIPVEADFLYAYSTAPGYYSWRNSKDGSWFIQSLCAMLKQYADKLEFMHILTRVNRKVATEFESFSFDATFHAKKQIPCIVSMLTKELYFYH

BJ = assay: BJ-TERT fibroblast viability loss – cell-based, RAS-independent, luminescence, dose response (AID 1933); assay type: functional; conditions: Homo sapiens
[3] = target: Glucose-6-phosphate 1-dehydrogenase (Homo sapiens, UniProt P11413); assay: inhibition of Homo sapiens G6PD, dose series – biochemical, fluorescence, selectivity assay for P. falciparum G6PD inhibitor project, dose response (AID 504792); assay type: functional
Hexokinase HKDC1 = target: T4, Hexokinase HKDC1 (Homo sapiens, UniProt Q2TB90); assay: inhibition of HKDC1 glucose phosphorylation – biochemical, W721R variant, dose response (AID 504729); assay type: functional
T4 sequence (Q2TB90 whole entry): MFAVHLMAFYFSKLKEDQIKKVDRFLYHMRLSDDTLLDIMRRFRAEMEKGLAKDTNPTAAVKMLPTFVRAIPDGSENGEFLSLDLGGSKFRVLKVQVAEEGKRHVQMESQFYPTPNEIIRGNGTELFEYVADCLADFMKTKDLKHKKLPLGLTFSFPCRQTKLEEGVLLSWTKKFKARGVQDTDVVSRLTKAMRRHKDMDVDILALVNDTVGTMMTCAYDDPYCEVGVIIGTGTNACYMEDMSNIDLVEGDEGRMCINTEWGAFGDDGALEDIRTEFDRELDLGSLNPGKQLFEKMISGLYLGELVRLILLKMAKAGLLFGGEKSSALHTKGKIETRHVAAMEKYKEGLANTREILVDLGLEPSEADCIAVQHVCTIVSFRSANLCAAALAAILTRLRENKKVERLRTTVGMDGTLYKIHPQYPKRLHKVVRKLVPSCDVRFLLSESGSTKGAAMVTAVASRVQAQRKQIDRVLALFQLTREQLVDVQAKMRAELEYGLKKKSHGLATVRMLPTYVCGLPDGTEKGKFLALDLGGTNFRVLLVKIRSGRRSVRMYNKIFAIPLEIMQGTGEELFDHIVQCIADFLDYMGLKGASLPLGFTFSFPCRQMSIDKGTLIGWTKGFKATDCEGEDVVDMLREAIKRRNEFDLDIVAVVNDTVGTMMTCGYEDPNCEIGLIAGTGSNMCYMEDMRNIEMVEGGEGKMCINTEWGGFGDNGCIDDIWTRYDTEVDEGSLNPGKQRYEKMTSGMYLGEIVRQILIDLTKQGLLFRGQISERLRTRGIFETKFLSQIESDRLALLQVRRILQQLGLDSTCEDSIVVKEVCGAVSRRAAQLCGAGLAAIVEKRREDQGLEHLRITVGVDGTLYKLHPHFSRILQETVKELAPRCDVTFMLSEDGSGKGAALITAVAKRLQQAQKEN

Glucose-6-phosphate 1-dehydrogenase, sequence (P11413 whole entry): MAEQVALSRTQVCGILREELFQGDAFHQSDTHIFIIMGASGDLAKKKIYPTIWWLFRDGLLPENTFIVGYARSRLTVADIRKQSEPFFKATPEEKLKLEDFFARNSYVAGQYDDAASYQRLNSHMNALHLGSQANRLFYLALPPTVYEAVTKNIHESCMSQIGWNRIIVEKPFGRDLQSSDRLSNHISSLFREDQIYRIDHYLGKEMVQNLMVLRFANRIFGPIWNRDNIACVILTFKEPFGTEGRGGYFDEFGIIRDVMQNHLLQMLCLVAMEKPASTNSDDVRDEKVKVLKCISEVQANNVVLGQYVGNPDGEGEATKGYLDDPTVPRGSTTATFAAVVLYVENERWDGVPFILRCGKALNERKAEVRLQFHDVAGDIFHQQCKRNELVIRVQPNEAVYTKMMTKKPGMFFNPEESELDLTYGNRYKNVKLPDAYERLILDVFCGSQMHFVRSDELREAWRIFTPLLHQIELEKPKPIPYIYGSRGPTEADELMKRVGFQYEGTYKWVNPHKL

In the case of `Oc1ccccc1/C=C/c1noc(-c2ccccc2O)n1`, the EC50 [1] is reported as > 67.6 µM (inactive), the IC50 [2] is reported as > 99 µM (inactive) and the IC50 (Caspase-3) is reported as 21 µM (active).
`Cc1nn(-c2ccccc2)c(Cl)c1CN(C(=O)CCl)c1ccc(Cl)cc1` was tested, and the EC50 (BJ) was 0.707 µM (inconclusive).
In the case of `O=C(O)CSc1cc(NS(=O)(=O)c2ccc(Cl)cc2)c2ccccc2c1O`, the IC50 [3] is reported as 29.9 µM (inactive) and the IC50 (Hexokinase HKDC1) is reported as 4.67 µM (active).
